Here are results for 22 compounds from publication PMC11458808, “Identification and development of a series of disubstituted piperazines for the treatment of Chagas disease” (European Journal of Medicinal Chemistry, 2022).

The nature of data set [1]: ChromLogD pH7.4 (chromatographic hydrophobicity index). The format is physicochemical. The note with it: pH 7.4, CHIpH7.4 × 0.0857–2; for chromatographic logD: read-out: ChromlogDpH7.4.
Data set [2] relates to intracellular T. cruzi X10/7 A1 amastigotes. In words: Intracellular T. cruzi assay. As to conditions: for EC50: Trypanosoma cruzi, read-out: T. cruzi (pEC50) (converted); for Activity in the intracellular T. cruzi assay (in words): purified compound. The format is cell-based, Trypanosoma cruzi. As for the experimental part: 1.1 Intracellular T. cruzi assay: Potency against intracellular T. cruzi X10/7 A1 amastigotes was determined as described previously with as sole modification that the compound treatment duration was increased from 72h to 96h.

Data set [3] is described as follows: Aqueous (kinetic) solubility by CAD. The format is physicochemical. As to conditions: kinetic solubility measured by CAD. As for the experimental part: 2.1 Aqueous solubility: This assay was conducted as previously described in [4].
Data set [4] in a line: Intrinsic clearance in mouse liver microsomes. The format is in vitro ADME. The note with it: for Mouse CLi: mouse liver microsomal intrinsic clearance. Here is the method: 2.2 Intrinsic clearance: This assay was conducted as previously described in [5].
Setting [5] is: potency against intracellular T. cruzi amastigotes, at least three independent replicates, standard deviations ≤0.2.

Converted amounts (≈) assume the structure as drawn.

For `COc1ccc(S(=O)(=O)Nc2ccc(CN3CCN(C(=O)Cn4cccnc4=O)CC3)cc2)cc1` [Compound 18, 4-methoxy-N-(4-((4-(2-(2-oxopyrimidin-1(2H)-yl)acetyl)piperazin-1-yl)methyl)phenyl)benzenesulfonamide], in data set [1], the chromatographic logD is 2.3. Besides, the EC50 in data set [2] (setting [5]) was above 50.1 µM. Also, in data set [3], the solubility was at least 336 µM. The “Mouse CLi” value in data set [4] is on record as below 0.5 mL/min/g.

Take `COc1ccc(S(=O)(=O)Nc2ccc(OC3CCN(C(=O)c4cccc(Cl)c4)CC3)cc2)cc1` [Compound 28, N-(4-((1-(3-chlorobenzoyl)piperidin-4-yl)oxy)phenyl)-4-methoxybenzenesulfonamide]: the chromatographic logD in data set [1] was determined as 5.9. The EC50 in data set [2] (setting [5]) is 5.01 µM. Besides, the solubility in data set [3] is below 1 µM. The “Mouse CLi” value in data set [4] turned out to be 37 mL/min/g.

Consider `O=C(c1cccc(Cl)c1)N1CCN(Cc2ccc(NS(=O)(=O)CC3CCCO3)cc2)CC1` (centres unmarked) [Compound 7, N-(4-((4-(3-chlorobenzoyl)piperazin-1-yl)methyl)phenyl)-1-(tetrahydrofuran-2-yl)methanesulfonamide], for which, in data set [1], the chromatographic logD is 4.6. In addition, in data set [2] (setting [5]), the EC50 was 15.8 µM. This compound also yielded a solubility in data set [3] of 486 µM (≈ 232 µg/mL). Besides, in data set [4], the “Mouse CLi” value was determined as 44 mL/min/g.

Regarding `Cc1ccc(S(=O)(=O)Nc2ccc(CN3CCN(C(=O)C4CCc5ccccc54)CC3)cc2)cc1` (centres unmarked) [Compound 24, N-(4-((4-(2,3-dihydro-1H-indene-1-carbonyl)piperazin-1-yl)methyl)phenyl)-4-methylbenzenesulfonamide], the chromatographic logD in data set [1] was determined as 5.8. Moreover, in data set [2] (setting [5]), the EC50 was 3.98 µM. The solubility in data set [3] worked out at 35 µM (≈ 17.1 µg/mL). Moreover, the “Mouse CLi” value in data set [4] was above 50 mL/min/g.

Take `COc1ccc(S(=O)(=O)Nc2ncc(CN3CCN(C(=O)c4cccc(Cl)c4)CC3)cn2)cc1` [Compound 42, N-(5-((4-(3-chlorobenzoyl)piperazin-1-yl)methyl)pyrimidin-2-yl)-4-methoxybenzenesulfonamide]: the chromatographic logD in data set [1] was 3.1. Further, the EC50 in data set [2] (setting [5]) is above 50.1 µM. Also, in data set [2], the “Activity in the intracellular T. cruzi assay (in words)” value (from here on “Activity”) is “lacked any activity”. The compound further displayed a solubility in data set [3] of at least 345 µM. Moreover, in data set [4], the “Mouse CLi” value was 1.0 mL/min/g.

As for `Cc1ccc(S(=O)(=O)Nc2ccc(NC3CCN(C(=O)c4cccc(Cl)c4)CC3)cc2)cc1` [Compound 36, N-(4-((1-(3-chlorobenzoyl)piperidin-4-yl)amino)phenyl)-4-methylbenzenesulfonamide], the chromatographic logD in data set [1] is 5.6. The EC50 in data set [2] (setting [5]) was 20 µM. This compound also showed a solubility in data set [3] of 18 µM (≈ 8.71 µg/mL). The “Mouse CLi” value in data set [4] was 25 mL/min/g.

In the case of `COc1ccc(S(=O)(=O)Nc2ccc(CN3CCN(C(=O)c4cccc(F)c4)CC3)cc2)cc1` [Compound 11, N-(4-((4-(3-fluorobenzoyl)piperazin-1-yl)methyl)phenyl)-4-methoxybenzenesulfonamide], in data set [1], the chromatographic logD is 4.8. Besides, the EC50 in data set [2] (setting [5]) was 0.631 µM. This compound had a solubility in data set [3] of 76 µM (≈ 36.8 µg/mL). The “Mouse CLi” value in data set [4] is recorded as above 50 mL/min/g.

Turning to `COc1ccc(S(=O)(=O)Nc2ccc(CN3CCN(C(=O)C4CN(C(C)=O)C4)CC3)cc2)cc1` [Compound 21, N-(4-((4-(1-acetylazetidine-3-carbonyl)piperazin-1-yl)methyl)phenyl)-4-methoxybenzenesulfonamide], the chromatographic logD in data set [1] turned out to be 2.6. Further, in data set [2] (setting [5]), the EC50 is above 50.1 µM. The compound also displayed a solubility in data set [3] of at least 511 µM. In addition, the “Mouse CLi” value in data set [4] is 1.0 mL/min/g.

With `COc1ccc(S(=O)(=O)Nc2ccc(CN3C[C@@H]4C[C@H]3CN4C(=O)c3cccc(Cl)c3)cc2)cc1` [Compound 39, N-(4-(((1S,4S)-5-(3-chlorobenzoyl)-2,5-diazabicyclo[2.2.1]heptan-2-yl)methyl)phenyl)-4-methoxybenzenesulfonamide], the chromatographic logD in data set [1] stood at 5.1. Moreover, the EC50 in data set [2] (setting [5]) was 15.8 µM. This compound also returned a solubility in data set [3] of 47 µM (≈ 24.1 µg/mL). Moreover, in data set [4], the “Mouse CLi” value is given as above 50 mL/min/g.

Regarding `COc1ccc(S(=O)(=O)Nc2ccc(CN3CC[C@H](NC(=O)c4cccc(Cl)c4)C3)cc2)cc1` [Compound 30, (S)-3-chloro-N-(1-(4-((4-methoxyphenyl)sulfonamido)benzyl)pyrrolidin-3-yl)benzamide], in data set [1], the chromatographic logD turned out to be 5.1. For the same compound, in data set [2] (setting [5]), the EC50 was 50.1 µM. Moreover, in data set [3], the solubility was 51 µM (≈ 25.5 µg/mL). For the same compound, the “Mouse CLi” value in data set [4] is recorded as above 50 mL/min/g.

Regarding `COc1ccc(S(=O)(=O)Nc2ccc(CN3CCN(C(=O)c4cccc(C)c4)CC3)cc2)cc1` [Compound 12], the chromatographic logD in data set [1] is 5.1. For the same compound, in data set [2] (setting [5]), the EC50 was 1 µM. This compound also returned a solubility in data set [3] of 64 µM (≈ 30.7 µg/mL).

As for `Cc1ccc(S(=O)(=O)Nc2ccc(CN[C@H]3CCN(C(=O)c4cccc(Cl)c4)C3)cc2)cc1` [Compound 31, (S)-N-(4-(((1-(3-chlorobenzoyl)pyrrolidin-3-yl)amino)methyl)phenyl)-4-methylbenzenesulfonamide], in data set [1], the chromatographic logD was 4.9. Besides, in data set [2] (setting [5]), the EC50 was 10 µM. The compound further returned a solubility in data set [3] of 72 µM (≈ 34.8 µg/mL). Besides, the “Mouse CLi” value in data set [4] is above 50 mL/min/g.

Regarding `COc1ccc(S(=O)(=O)Nc2ncc(CN3CCN(C(=O)c4cccc(Cl)c4)CC3)nc2OC)cc1` [Compound 46, N-(5-((4-(3-chlorobenzoyl)piperazin-1-yl)methyl)-3-methoxypyrazin-2-yl)-4-methoxybenzenesulfonamide], the chromatographic logD in data set [1] came to 4. Moreover, the EC50 in data set [2] (setting [5]) is above 50.1 µM. Further, the “Activity” value in data set [2] is reported as “lacked any activity”. The compound further returned a solubility in data set [3] of at least 443 µM. In addition, the “Mouse CLi” value in data set [4] is 1.2 mL/min/g.

As to `COc1ccc(S(=O)(=O)Nc2ccc(CN3CCN(C(=O)c4cccc(Cl)c4)CC3)cc2)cc1` [Compound 4, N-(4-((4-(3-chlorobenzoyl)piperazin-1-yl)methyl)phenyl)-4-methoxybenzenesulfonamide], the chromatographic logD in data set [1] came to 5.6. In addition, the EC50 in data set [2] (setting [5]) was 0.501 µM. In addition, the concentration in solution in data set [3] (solubility) came to 43 µM (≈ 21.5 µg/mL). For the same compound, in data set [4], the “Clearance (mouse liver microsomal)” value was above 50 mL/min/g and the “Mouse CLi” value was above 50 mL/min/g.

In the case of `COc1ccc(S(=O)(=O)Nc2ccc(CN3CCN(C(=O)c4cc(C(F)(F)F)n[nH]4)CC3)cc2)cc1` [Compound 17, 4-methoxy-N-(4-((4-(5-(trifluoromethyl)-1H-pyrazole-3-carbonyl)piperazin-1-yl)methyl)phenyl)benzenesulfonamide], the chromatographic logD in data set [1] turned out to be 4.9. The EC50 in data set [2] (setting [5]) is 6.31 µM. Also, the concentration in solution in data set [3] (solubility) was 122 µM (≈ 63.9 µg/mL). Moreover, the “Mouse CLi” value in data set [4] stood at 6.4 mL/min/g.

Take `COc1ccc(S(=O)(=O)Nc2cnc(CN3CCN(C(=O)c4cccc(Cl)c4)CC3)cn2)cc1` [Compound 45, N-(5-((4-(3-chlorobenzoyl)piperazin-1-yl)methyl)pyrazin-2-yl)-4-methoxybenzenesulfonamide]: the chromatographic logD in data set [1] was found to be 2.8. In addition, in data set [2] (setting [5]), the EC50 is above 50.1 µM. In addition, in data set [2], the “Activity” value was “lacked any activity”. Moreover, the solubility in data set [3] is at least 414 µM. Also, the “Mouse CLi” value in data set [4] was 1.3 mL/min/g.

As to `Cc1ccc(S(=O)(=O)Nc2ccc(CN(C)C3CCN(C(=O)c4cccc(Cl)c4)C3)cc2)cc1` (stereo in doubt) [Compound 34, (S)-N-(4-(((1-(3-chlorobenzoyl)pyrrolidin-3-yl)(methyl)amino)methyl)phenyl)-4-methylbenzenesulfonamide], the chromatographic logD in data set [1] came to 5.7. Moreover, the EC50 in data set [2] (setting [5]) was 10 µM. Also, the solubility in data set [3] amounted to 28 µM (≈ 13.9 µg/mL). In addition, the “Mouse CLi” value in data set [4] was above 50 mL/min/g.

As for `Cc1ccc(S(=O)(=O)Nc2ccc(CN3C[C@@H]4CN(C(=O)c5cccc(Cl)c5)C[C@@H]4C3)cc2)cc1` [Compound 35, N-(4-(((3aR,6aS)-5-(3-chlorobenzoyl)hexahydropyrrolo[3,4-c]pyrrol-2(1H)-yl)methyl)phenyl)-4-methylbenzenesulfonamide], the chromatographic logD in data set [1] amounted to 5.8. The EC50 in data set [2] (setting [5]) is 6.31 µM. In data set [3], this compound yielded a solubility of 25 µM (≈ 12.8 µg/mL). In data set [4], the “Mouse CLi” value is given as above 50 mL/min/g.

Take “4-methoxy-N-(4-((4-(1-methyl-4-oxo-1,4-dihydroquinoline-2-carbonyl)piperazin-1-yl)methyl)phenyl)benzenesulfonamide [Compound 27]”: the ChromlogDpH7.4 in data set [1] is given as 5.4. Further, in data set [2] (setting [5]), the “T. cruzi (pEC50)” value worked out at 5.4. In data set [3], this compound showed a solubility of 29 µM. The “Mouse CLi” value in data set [4] is above 50 mL/min/g.

For `COc1ccc(S(=O)(=O)Nc2ccc(CN3CCN(C(=O)c4cccc(Cl)c4)CC3)nc2)cc1` [Compound 44, N-(6-((4-(3-chlorobenzoyl)piperazin-1-yl)methyl)pyridin-3-yl)-4-methoxybenzenesulfonamide], the chromatographic logD in data set [1] is 4.5. Further, the EC50 in data set [2] (setting [5]) is 7.94 µM. For the same compound, in data set [3], the solubility was at least 373 µM. Besides, in data set [4], the “Mouse CLi” value was 39 mL/min/g.

On to `COc1ccc(S(=O)(=O)Nc2cnc(CN3CCN(C(=O)c4cccc(Cl)c4)CC3)nc2)cc1` [Compound 43, N-(2-((4-(3-chlorobenzoyl)piperazin-1-yl)methyl)pyrimidin-5-yl)-4-methoxybenzenesulfonamide], for which the chromatographic logD in data set [1] was 2.9. In addition, in data set [2] (setting [5]), the EC50 was above 50.1 µM. The “Activity” value in data set [2] is on record as “lacked any activity”. Further, the solubility in data set [3] was at least 474 µM. For the same compound, in data set [4], the “Mouse CLi” value was 1.5 mL/min/g.

On to `O=C(c1cccc(Cl)c1)N1CCN(Cc2ccc(N3CCCCS3(=O)=O)cc2)CC1` [Compound 8, (3-chlorophenyl)(4-(4-(1,1-dioxido-1,2-thiazinan-2-yl)benzyl)piperazin-1-yl)methanone], for which the chromatographic logD in data set [1] worked out at 5.1. Further, the EC50 in data set [2] (setting [5]) was 25.1 µM. Further, in data set [3], the solubility was at least 402 µM. Also, the “Mouse CLi” value in data set [4] is 21 mL/min/g.
